Data: patent publication US20240390529A1, “DUAL-MODE PROBE FOR DETECTING HYDROGEN SULFIDE AND USE THEREOF” (KYUNGPOOK NATIONAL UNIVERSITY INDUSTRY-ACADEMIC COOPERATION …, priority 2022, published 2024)
Each block holds one molecule with its values, some of them ahead of it.

Tests used:
H2S in HeLa cells = assay: Fluorescence imaging of exogenous and endogenous H2S in live HeLa cells; assay type: cell-based, human; conditions: 450 μM, HeLa cells probed with Cu-ATSM-FITC(5)
Description: Next, we investigated the usefulness of Cu-ATSM-FITC(5) for monitoring H2S levels in living cells (FIG. 14).

[1] = tested on: H2S concentration in brain tissues; assay: Quantification of H2S in brain by methylene blue method; assay type: in vivo, mice
Description: The methylene blue method was used to directly measure H2S concentration in brain tissues. Briefly, PET imaging was performed, brains were harvested, weighed, and homogenized in liquid N2. An ice-cold PBS solution in a volume equivalent to the weight of the homogenate (w/v, approximately 260 to 300 mg) was added, followed by vortex for 3 min and centrifugation (14,000 rpm, 5 min, 4° C.). Then, 100 μL of the supernatant was incubated together with 100 μL of 1% zinc acetate dihydrate at 37° C. for 10 minutes to immobilize H2S. 100 μL of 0.1 M sodium tetraborate buffer (pH 9) and 200 μL of 20 mM N, N-dimethyl-p-phenylenediamine sulfate were added to 7.2 M HCl, and 200 μL of 30 mM iron (III) chloride was added to 1.2 M HCl, and the mixture was incubated at 37° C. for 15 min to form methylene blue dyes. The mixture was centrifuged again (14,000 rpm, 5 minutes, 4° C.). 100 μL of supernatant was transferred in triplicate to 96-well plates, and absorbance was recorded spectrophotometrically at 670 nm. The H2S concentration was calculated by using a standard curve obtained by plotting absorbance (A670) versus NaHS concentration (0 to 30 μM). For quantification of H2S in the left and right hemispheres of the brains, PET imaging was performed, and only the cerebral hemispheres were harvested and processed separately. […]

[2] = Optical properties (UV-Vis absorbance, fluorescence emission); assay type: physicochemical
Description: The optical properties of the free ligand ATSM-FITC (4) were evaluated. […] When H2S sequestered Cu(II) ions from the copper complex (5) and precipitated CuS, the ATSM-FITC ligand was released and fluorescence was emitted (FIG. 7).

[3] = tested on: Human cervical cancer cells (HeLa); assay: MTT cytotoxicity analysis, HeLa; assay type: cell-based; conditions: HeLa
Description: (§1) The cytotoxicity of Cu-ATSM-FITC(5) was evaluated through 3-(4,5-dimethyl-2-thiazolyl)-2,5-diphenyltetrazolium bromide (MTT; sigma-aldrich) analysis. Human cervical cancer cells (HeLa), human hepatoma cells (HepG2), and human embryonic kidney cells (HEK293) were prepared in 96-well plates at a density of 10,000 cells per well. As compared to the control group treated with PBS alone, they were treated with Cu-ATSM-FITC (5) at increasing concentrations of 1, 10, and 25 μM. Afterwards, they were incubated for 1, 4, and 24 hours (37° C., 5% CO2), respectively. For each treatment time, each well was added with 10 μL of MTT (5 mg/mL in PBS) solution and incubated for 3 hours. The supernatant was carefully aspirated, and the purple insoluble formazan crystals in the wells were dissolved using DMSO for 30 minutes. Absorbance was measured at 550 nm using a spectrophotometer (SPECTROstar Nano, BMG Labtech, Ortenberg, Germany). CuS was also performed four times in a similar manner by using HeLa, HEK293, HepG2, and human brain glioblastoma (U87MG) cells.

[4] = tested on: human brain glioblastoma (U87MG) cells; assay: MTT cytotoxicity analysis, U87MG; assay type: cell-based
Description: as §1

[5] = tested on: human hepatoma cells (HepG2); assay: MTT cytotoxicity analysis, HepG2; assay type: cell-based
Description: as §1

[6] = tested on: human embryonic kidney cells (HEK293); assay: MTT cytotoxicity analysis, HEK293; assay type: cell-based
Description: as §1

[7] = Biodistribution in normal BALB/c mice (γ-counter); assay type: in vivo; conditions: 4 hours after administration
Description: BALB/c mice (male, 9 weeks old) were used to investigate the systemic distribution and clearance rate of ^64Cu-ATSM-FITC (6). ^64Cu-ATSM-FITC (6) with a radioactivity of 0.56 to 0.74 MBq in a saline solution (5% DMSO, 200 μL) was injected into mice through the tail vein under anesthesia. […] Blood was drawn, and organs comprising heart, lung, muscle, fat, bone, spleen, kidney, liver, intestine, and brain were harvested, weighed, and analyzed by using a γ-counter (Wallac Wizard 1480, PerkinElmer, France). Radioactivity was calculated as percentage of injected dose per gram (% ID/g).
The distribution of ^64Cu-ATSM-aniline in the body was confirmed by using the same method as described in Experimental Methods 5 and 7 above.

Compound: C#CCC(N)C(=O)O (racemic) [DL-propargylglycine, reference compound]
green fluorescence due to endogenous H2S after CSE blockade (H2S in HeLa cells): completely reduced

Compound: Cl.NOCC(=O)O.NOCC(=O)O [AOAA]
reduction of H2S concentration in the brain compared to controls ([1]; 10 mg/kg intraperitoneal, mice): 32% | H2S concentration in the brain ([1]; AOAA-treated mice): 2.1±0.5 μg/g brain

absorbance band ([2]; UV-Vis spectroscopy): 494 nm | maximum fluorescence emission ([2]; excitation at 480 nm): 524 nm
Compound: CNC(=S)N/N=C(C)/C(C)=N/NC(=S)Nc1ccc(-c2c3ccc(=O)cc-3oc3cc(O)ccc23)c(C(=O)O)c1 [ATSM-FITC (4), 2-(6-hydroxy-3-oxo-3H-xanthen-9-yl)-5-((E)-2-((E)-3-(2-(methylcarbamothioyl)hydrazono)butan-2-ylidene)hydrazinecarbothioamido)benzoic Acid]

Compound: [S]=[Cu] [CuS, copper sulfide]
cytotoxicity [3]: no cytotoxicity was found | cytotoxicity [4]: no cytotoxicity was found | cytotoxicity [5]: no cytotoxicity was found | cytotoxicity [6]: no cytotoxicity was found

Compound: CNC([S-])=NN=C(C)C(C)=NN=C([S-])Nc1ccc(N(C)C)cc1.[64Cu+2] [^64Cu-ATSM-aniline, reference compound]
distribution in the brain [7]: very low | organs of widest distribution [7]: lungs and liver
